System: colorectal cancer tumor
Assay: Colorectal cancer tumor size and tumor tissue, FIGS. 22-24
Assay type: in vivo, mouse
Details: treated versus control

CC(C)COc1cc(N(C)C)ccc1C1CC(=O)Nc2cc3c(cc21)OCO3 (stereo not shown) [FQI-234, 8-(4-(dimethylamino)-2-isobutoxyphenyl)-7,8-dihydro-[1,3]dioxolo[4,5-g]quinolin-6(5H)-one]
stained tumor tissue, microscope images: more organized, interstitium and differentiated tumor

— patent US11458132B2, “Quinolin-2(1H)-one inhibitors of Late SV40 Factor” (TRUSTEES OF BOSTON UNIVERSITY, priority 2020, dated 2022)
